Among the test systems are CAKI-1 renal; UO-31 renal; NCI-H226 lung; SN12C renal; HOP-62 NSCLC; COLO 205 colon; MCF7 breast; OVCAR-4 ovarian; NCI-H460 lung; 786-0 renal.
What all share (test): NCI anticancer screen, dose series, 48 h

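Interpolation was linear, between the two tested concentrations surrounding the appropriate level; five concentrations were tested over 48 hours in 96-well plates. GI50 marks 50% less growth. TGI denotes the concentration required for complete inhibition of growth.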 Some results are limits rather than exact numbers.

`COc1ccc2c(c1)OC(N)=C(C#N)C2c1ccc(F)c(F)c1` (configuration not stated): the GI50 is 0.394 µM in the test with CAKI-1 renal; 0.648 µM with UO-31 renal; 19.2 µM in the test on NCI-H226 lung; 0.718 µM with SN12C renal; 0.515 µM in the test on HOP-62 NSCLC; 0.437 µM with COLO 205 colon. In addition, the GI50 was 0.333 µM in the test with MCF7 breast, 2.33 µM in the test on OVCAR-4 ovarian, 0.41 µM in the test on NCI-H460 lung and 0.595 µM in the test on 786-0 renal. The TGI in the test with CAKI-1 renal is more than 100 µM; in the test with UO-31 renal, more than 100 µM; with NCI-H226 lung it was more than 100 µM; in the test on SN12C renal, more than 70.6 µM; with HOP-62 NSCLC, more than 92.2 µM; in the test with COLO 205 colon it was 5.2 µM. For the same molecule, the TGI is more than 67.8 µM in the test on MCF7 breast, more than 100 µM in the test on OVCAR-4 ovarian, 41.6 µM in the test with NCI-H460 lung and more than 96.6 µM in the test with 786-0 renal.

Turning to `CN(CCNc1ccc(C(=N)N)cc1)c1ccc(C(=N)N)cc1`, the GI50 with CAKI-1 renal was 2.7 µM; in the test with UO-31 renal it was 54.8 µM; with NCI-H226 lung, 3.81 µM; in the test on SN12C renal, 5.53 µM; with HOP-62 NSCLC, 50 µM; in the test with COLO 205 colon it was 17 µM. Besides, the GI50 is 30.5 µM in the test with MCF7 breast, 66 µM in the test with OVCAR-4 ovarian, 4.74 µM in the test on NCI-H460 lung and more than 100 µM in the test with 786-0 renal. In addition, the TGI in the test on CAKI-1 renal was 37.3 µM; in the test with UO-31 renal, more than 100 µM; in the test on NCI-H226 lung, more than 100 µM; with SN12C renal, more than 100 µM; in the test on HOP-62 NSCLC, more than 100 µM; with COLO 205 colon, 41.1 µM. Further, the TGI with MCF7 breast, in the test with OVCAR-4 ovarian, with NCI-H460 lung and with 786-0 renal was more than 100 µM each time.

Turning to `CN1CCN(C(=O)OCc2nc3c(N4CCOCC4)nc(-c4ccccc4)nc3n2C)CC1`, the GI50 in the test on CAKI-1 renal was 0.471 µM; with UO-31 renal it was 0.377 µM; with NCI-H226 lung, 1.61 µM; in the test on SN12C renal it was 0.814 µM; with HOP-62 NSCLC, 1.53 µM; in the test on COLO 205 colon, 1.36 µM. In addition, the GI50 with MCF7 breast was 0.389 µM; in the test with OVCAR-4 ovarian it was 1.2 µM; in the test with NCI-H460 lung, 1.48 µM; in the test on 786-0 renal it was 0.993 µM. Further, the TGI in the test with CAKI-1 renal was 1.83 µM; in the test on UO-31 renal, 1.8 µM; in the test with NCI-H226 lung, 3.78 µM; with SN12C renal it was 2.12 µM; with HOP-62 NSCLC, 3.79 µM; in the test on COLO 205 colon it was 3.75 µM. Besides, the TGI was 2.11 µM in the test on MCF7 breast, 2.65 µM in the test with OVCAR-4 ovarian, 3.06 µM with NCI-H460 lung and 2.36 µM in the test with 786-0 renal.

On to `CC(C)c1ccc2c(c1)CCC1C(C)(CN)CCCC21C` (configuration not stated), for which the TGI in the test on CAKI-1 renal was 2.96 µM; in the test on UO-31 renal, 2.66 µM; with NCI-H226 lung, 3.4 µM; in the test on SN12C renal it was 3.16 µM; in the test on HOP-62 NSCLC, 3.14 µM; in the test on COLO 205 colon it was 1.43 µM. For the same molecule, the TGI in the test on MCF7 breast was found to be 2.82 µM; with OVCAR-4 ovarian, 2.72 µM; with NCI-H460 lung, 2.6 µM; in the test with 786-0 renal it was 2.89 µM.

For the molecule `NS(=O)(=O)c1ccc(N=Nc2c(O)[nH]c3cccc(CCc4ccncc4)c23)cc1`, the GI50 in the test on CAKI-1 renal, in the test on UO-31 renal, in the test with NCI-H226 lung, in the test on SN12C renal, in the test on HOP-62 NSCLC and in the test with COLO 205 colon was more than 25 µM in each case. The GI50 with MCF7 breast, in the test with OVCAR-4 ovarian, in the test with NCI-H460 lung and in the test on 786-0 renal was more than 25 µM each time. Also, the TGI with CAKI-1 renal, in the test with UO-31 renal, with NCI-H226 lung, with SN12C renal, with HOP-62 NSCLC and in the test on COLO 205 colon was more than 25 µM in each case. Further, the TGI in the test on MCF7 breast, in the test on OVCAR-4 ovarian, in the test with NCI-H460 lung and in the test on 786-0 renal was more than 25 µM in each case.

For `CCCC(c1cc(C(C)(C)C)c(O)cc1C)c1cc(C(C)(C)C)c(O)cc1C`, the TGI with CAKI-1 renal was determined as 15.3 µM; in the test with UO-31 renal, 11.2 µM; in the test on NCI-H226 lung, 4.53 µM; with SN12C renal it was 3.81 µM; with HOP-62 NSCLC, 8 µM; in the test with COLO 205 colon, 5.4 µM. The TGI is 4.85 µM in the test on MCF7 breast, 19.4 µM in the test with OVCAR-4 ovarian, 3.92 µM with NCI-H460 lung and 5.41 µM in the test on 786-0 renal.

In the case of `Cc1cc(C)c2c(=O)cc(-c3ccc(F)cc3)[nH]c2n1`, the TGI is more than 100 µM with CAKI-1 renal; 92.4 µM in the test with UO-31 renal; more than 100 µM in the test with NCI-H226 lung; more than 100 µM in the test on SN12C renal; more than 100 µM with HOP-62 NSCLC; more than 100 µM in the test with COLO 205 colon. Also, the TGI in the test with MCF7 breast is more than 100 µM; with OVCAR-4 ovarian, 48.3 µM; in the test with NCI-H460 lung, more than 100 µM; with 786-0 renal, more than 100 µM. Also, the GI50 was 51.6 µM in the test with NCI-H460 lung and 78.8 µM in the test on 786-0 renal.

For `Cc1cccc2c1NC(=O)[C@@H](NC(=O)[C@H](CCC(F)(F)F)[C@H](CCC(F)(F)F)C(N)=O)N=C2c1cccc(F)c1`, the GI50 with CAKI-1 renal was more than 100 µM; with UO-31 renal, more than 100 µM; with NCI-H226 lung it was 17 µM; in the test with SN12C renal, 28.4 µM; with HOP-62 NSCLC, 25.8 µM; with COLO 205 colon it was more than 100 µM. Besides, the GI50 in the test on MCF7 breast was 24.1 µM; with OVCAR-4 ovarian, 22.4 µM; in the test with NCI-H460 lung, 31.3 µM; in the test with 786-0 renal, 20.6 µM. Further, the TGI in the test on CAKI-1 renal is more than 100 µM; with UO-31 renal, more than 100 µM; in the test with NCI-H226 lung it was 73.4 µM; in the test on SN12C renal it was more than 100 µM; in the test on HOP-62 NSCLC it was 92.1 µM; in the test on COLO 205 colon, more than 100 µM. Also, the TGI is more than 100 µM in the test with MCF7 breast, 61.9 µM with OVCAR-4 ovarian, more than 100 µM with NCI-H460 lung and 56.3 µM with 786-0 renal.

(Values after PubChem BioAssay (NCI).)
